According to US20230365627A1, “MACROCYCLIC PEPTIDE BORONATE IMMUNOMODULATORS” (Bristol-Myers Squibb Company, priority 2020, published 2023):
Like-named read-outs stand apart in the source and are kept apart here. *1 amine or outer side, *2 acyl side, *3 side chain or, on linkers, in order; H or OH if unused. Where a SMILES comes first, the peptide text is derived from it. Bridges are numbered along the chain shown (N, C = ends). [ ]: non-standard residue; d: D form. X23 = O=C([C@H](CN1Cc2ccc(cc2)B2O[C@@H]([C@H](O)[C@@H](C(O)CO)O2)[C@H](O)C1)N[*:1])[*:2]; X16 = O=C([C@H](CN(Cc1cccc(B(O)O[*:3])c1)Cc1cccc2ccc3ccccc3c12)N[*:1])[*:2]; X13 = O=C([C@H](CCNC[C@@H](O)[C@@H](O)[C@H](O)[C@H](O)C(O)CO)N[*:1])[*:2]; Trp(1-CH2CO) = O=C([C@H](Cc1cn(CC(=O)[*:3])c2ccccc12)N[*:1])[*:2]; Trp(1-CH2COOH) = N[C@@H](Cc1cn(CC(=O)O)c2ccccc12)C(=O)O; X17 = O=C([C@H](CCNCc1cccc(B(O)O)c1)N[*:1])[*:2]; Hyp = O=C(O)[C@@H]1C[C@@H](O)CN1; NMeNle = CCCC[C@H](NC)C(=O)O; NMeA = CN[C@@H](C)C(=O)O

Molecular target: PD-1/PD-L1 (Homo sapiens (Human), UniProt Q9NZQ7)
Sequence (Q9NZQ7 18-239): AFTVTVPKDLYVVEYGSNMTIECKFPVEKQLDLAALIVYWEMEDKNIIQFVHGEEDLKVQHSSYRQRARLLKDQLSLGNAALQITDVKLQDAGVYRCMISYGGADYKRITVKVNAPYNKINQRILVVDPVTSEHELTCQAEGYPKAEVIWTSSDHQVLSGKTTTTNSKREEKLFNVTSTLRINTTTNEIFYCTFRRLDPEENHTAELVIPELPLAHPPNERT
Experiment: PD-1/PD-L1 Homogenous Time-Resolved Fluorescence (HTRF) binding assay

| SMILES | IC50 [nM] | IC50 (PD-L1-His 10 nM, PD-1-Ig 20 nM, read-out: HTRF IC50) [nM] |
| --- | --- | --- |
| CCCC[C@H]1C(=O)N(C)[C@@H](CCCC)C(=O)N[C@@H](CC(C)C)C(=O)N[C@H](C(=O)NCC(N)=O)CSCC(=O)N[C@@H](Cc2ccc(O)cc2)C(=O)N(C)[C@@H](C)C(=O)N[C@@H](CC(N)=O)C(=O)N2CCC[C@H]2C(=O)N[C@@H](CN2Cc3ccc(cc3)B3O[C@@H]([C@H](O)[C@@H](C(O)CO)O3)[C@H](O)C2)C(=O)N[C@@H](CC(C)C)C(=O)N2C[C@H](O)C[C@H]2C(=O)N[C@@H](Cc2c[nH]c3ccccc23)C(=O)N[C@@H](CCNC[C@@H](O)[C@@H](O)[C@H](O)[C@H](O)C(O)CO)C(=O)N[C@@H](Cc2cn(CC(=O)O)c3ccccc23)C(=O)N1C (some centres unmarked) [Example 1039] ({CH2CO}-Y[NMeA]NP[X23]L[Hyp]W[X13][Trp(1-CH2COOH)][NMeNle][NMeNle]LCG-NH2; thioether N-14) | 4.4 |  |
| CCCC[C@H]1C(=O)N(C)[C@@H](CCCC)C(=O)N[C@@H](CC(C)C)C(=O)N[C@H](C(=O)NCC(N)=O)CSCC(=O)N[C@@H](Cc2ccc(O)cc2)C(=O)N(C)[C@@H](C)C(=O)N[C@@H](CC(N)=O)C(=O)N2CCC[C@H]2C(=O)N[C@H]2CN(Cc3cccc4ccc5ccccc5c34)Cc3cccc(c3)B(O)OC(=O)Cn3cc(c4ccccc43)C[C@H](NC(=O)[C@H](CCNCc3cccc(B(O)O)c3)NC(=O)[C@H](Cc3c[nH]c4ccccc34)NC(=O)[C@@H]3C[C@@H](O)CN3C(=O)[C@H](CC(C)C)NC2=O)C(=O)N1C [Example 1042] ({CH2CO}-Y[NMeA]NP[X16]L[Hyp]W[X17][Trp(1-CH2CO)][NMeNle][NMeNle]LCG-NH2; ester 5-10; thioether N-14) |  | 94 |
